# Laboratory results taken from patent US20080004236A1, “High Dose, Short Interval Use of Sulfated Polysaccharides for Treatment of Infections” (priority 2004, published 2008).
# How the values were obtained:
# [1] = Maximum tolerated dose in rats
# [2] = maximally tolerated dose, continuous infusion up to 14 days, subjects with symptomatic HIV infection; cited from earlier work
# [3] = Maximum tolerated dose in dogs
# [4] = Maximum tolerated dose in monkeys
substance,measurement,setting,value
dextran sulfate [listing 1 of 3 here],maximum tolerated dose (MTD),[1],about 800 mg/kg/day
dextran sulfate [listing 2 of 3 here],toxicity of continuous intravenous infusion,[2],toxic
dextran sulfate [listing 3 of 3 here],maximum tolerated dose (MTD),[3],about 500 mg/kg/day
same,maximum tolerated dose (MTD),[4],about 300 mg/kg/day
